Reference: BindingDB's records for doi:10.1016/S0960-894X(97)00421-6 (1997)

Target: Growth hormone secretagogue receptor type 1 (Rattus norvegicus) (UniProt O08725)
Experiment: Ability to release growth hormone in a rat pituitary cell assay

Chain of Growth hormone secretagogue receptor type 1 (Rattus norvegicus) (O08725 whole entry, looked up): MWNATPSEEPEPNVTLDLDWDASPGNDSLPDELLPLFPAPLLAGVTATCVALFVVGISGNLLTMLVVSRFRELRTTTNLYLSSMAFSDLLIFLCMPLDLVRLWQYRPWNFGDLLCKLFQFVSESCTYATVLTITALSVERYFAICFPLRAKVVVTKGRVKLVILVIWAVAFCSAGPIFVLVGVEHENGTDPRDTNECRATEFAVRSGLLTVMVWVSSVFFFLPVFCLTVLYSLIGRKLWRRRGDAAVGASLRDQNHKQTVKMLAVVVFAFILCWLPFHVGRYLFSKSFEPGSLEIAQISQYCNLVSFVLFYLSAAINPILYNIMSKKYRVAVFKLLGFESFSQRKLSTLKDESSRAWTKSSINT

Row | SMILES | EC50 [nM]
1 | CC(C)(N)C(=O)N[C@H](CCCc1ccccc1)C(=O)N1CCC2(CC1)C[C@H](CC(=O)O)c1ccccc12 | 2.3
2 | CC(C)(N)C(=O)N[C@H](CCCc1ccccc1)C(=O)N1CCC2(CC1)CC(CCC(=O)O)c1ccccc12 (stereo partly drawn) | 2.5
3 | CCOC(=O)[C@H]1CC2(CCN(C(=O)[C@@H](CCCc3ccccc3)NC(=O)C(C)(C)N)CC2)c2ccccc21 | 1
4 | CC(C)(N)C(=O)N[C@H](CCCc1ccccc1)C(=O)N1CCC2(CC1)C[C@@H](CC(=O)O)c1ccccc12 | 1.9
5 | CC(C)(N)C(=O)N[C@H](Cc1c[nH]c2ccccc12)C(=O)N1CCC2(CC1)C[C@@H](CC(=O)O)c1ccccc12 | 5.8
6 | CCOC(=O)C[C@H]1CC2(CCN(C(=O)[C@@H](Cc3c[nH]c4ccccc34)NC(=O)C(C)(C)N)CC2)c2ccccc21 | 28
7 | CC(C)(N)C(=O)N[C@H](CCCc1ccccc1)C(=O)N1CCC2(CC1)C[C@@H](C(=O)O)c1ccccc12 | 2.5
8 | CC(C)(N)C(=O)N[C@H](CCCc1ccccc1)C(=O)N1CCC2(CC1)C[C@H](C(=O)O)c1ccccc12 | 2.1
9 | C[C@@H](O)CNC(C)(C)CC(=O)N[C@@H]1CCc2ccccc2N(Cc2ccc(-c3ccccc3-c3nnn[nH]3)cc2)C1=O [L-692585] | 3
10 | CCOC(=O)C[C@H]1CC2(CCN(C(=O)[C@@H](CCCc3ccccc3)NC(=O)C(C)(C)N)CC2)c2ccccc21 | 1
11 | CCOC(=O)[C@H]1CC2(CCN(C(=O)[C@@H](COCc3ccccc3)NC(=O)C(C)(C)N)CC2)c2ccccc21 | 2.9
12 | CC(C)(N)CC(=O)N[C@@H]1CCc2ccccc2N(Cc2ccc(-c3ccccc3-c3nnn[nH]3)cc2)C1=O [3-Amino-3-methyl-N-{2-oxo-1-[2'-(1H-tetrazol-5-yl)-biphenyl-4-ylmethyl]-2,3,4,5-tetrahydro-1H-benzo[b]azepin-3-yl}-butyramide] | 60
13 | CCOC(=O)[C@@H]1CC2(CCN(C(=O)[C@@H](Cc3c[nH]c4ccccc34)NC(=O)C(C)(C)N)CC2)c2ccccc21 | 8.3
14 | CC(C)(N)C(=O)N[C@@H](CCCc1ccccc1)C(=O)N1CCC2(CCc3ccccc32)CC1 | 10
15 | CC(C)(N)C(=O)N[C@H](COCc1ccccc1)C(=O)N1CCC2(CC1)C[C@H](C(=O)O)c1ccccc12 | 4.4
16 | CC(C)(N)C(=O)N[C@H](Cc1c[nH]c2ccccc12)C(=O)N1CCC2(CCc3ccccc32)CC1 [L-162752] | 14
17 | CCOC(=O)[C@@H]1CC2(CCN(C(=O)[C@@H](COCc3ccccc3)NC(=O)C(C)(C)N)CC2)c2ccccc21 | 6.6
18 | CCOC(=O)C[C@@H]1CC2(CCN(C(=O)[C@@H](Cc3c[nH]c4ccccc34)NC(=O)C(C)(C)N)CC2)c2ccccc21 | 7
19 | CCOC(=O)[C@@H]1CC2(CCN(C(=O)[C@@H](CCCc3ccccc3)NC(=O)C(C)(C)N)CC2)c2ccccc21 | 2
20 | CCOC(=O)CCC1CC2(CCN(C(=O)[C@@H](CCCc3ccccc3)NC(=O)C(C)(C)N)CC2)c2ccccc21 (stereo partly drawn) | 1.3
21 | CCOC(=O)C[C@@H]1CC2(CCN(C(=O)[C@@H](CCCc3ccccc3)NC(=O)C(C)(C)N)CC2)c2ccccc21 | 0.8
22 | CCOC(=O)[C@H]1CC2(CCN(C(=O)[C@@H](Cc3c[nH]c4ccccc34)NC(=O)C(C)(C)N)CC2)c2ccccc21 | 6
23 | CC(C)(N)C(=O)N[C@H](COCc1ccccc1)C(=O)N1CCC2(CCc3ccccc32)CC1 | 17
